# Assay results as given in patent US10004739B2, “Methods for treating cancer by inhibiting FGFR3/TACC3 fusion protein” (Astellas Pharma Inc., priority 2012, dated 2018).
# Columns and labels:
# [1] = tested on: FGFR3-TACC3_v1 expression/NIH3T3 cells; test: Anchorage-independent cell proliferation, spheroid plate, CellTiter-Glo; details: Mus musculus, NIH3T3, 96 h, read-out: growth inhibition rate (%), v1
# Procedure: (§4) The FGFR3-TACC3_v1 expression/NIH3T3 cells were seeded in a 96-well spheroid plate (Sumilon Cell-Tight Spheroid 96U; SUMITOMO BAKELITE CO., LTD.) with D-MEM containing 10% fetal bovine serum, such that the cell count in each well became 1×10^3. Moreover, as a positive control, a well added only with the medium was prepared. […] As a negative control, DMSO as a vehicle of the compound was added thereto at the same concentration (0.1%) as set at the time of adding the compound. Thereafter, the cells were cultured for 4 days at 37° C. in the presence of 5% CO2, and a reagent for cell count measurement (CellTiter-Glo™ Luminescent Cell Viability Assay; Promega Corporation) was added thereto. The resultant was stirred for 20 minutes, and the cell count was measured using a luminometer.
# (§5) Moreover, the respective compounds were added such that the final concentration thereof became 100 nM, 10 nM, and 1 nM.
# [2] = tested on: FGFR3-TACC3_v1 (N-FLAG) fusion polypeptide; test: In vitro kinase activity of FGFR3-TACC3_v1 (N-FLAG) fusion polypeptide (HTRF KinEASE-TK, peptide substrate); assay type: biochemical, human; details: ATP 100 μM
# [3] = tested on: FGFR3-TACC3_v3 (N-FLAG) fusion polypeptide; test: In vitro kinase activity of FGFR3-TACC3_v3 (N-FLAG) fusion polypeptide (HTRF KinEASE-TK, peptide substrate); assay type: biochemical, human; details: ATP 100 μM
# [4] = tested on: FGFR3-TACC3_v2 expression/NIH3T3 cells; test: Anchorage-independent cell proliferation, spheroid plate, CellTiter-Glo; details: Mus musculus, NIH3T3, 96 h, read-out: growth inhibition rate (%), v2
# Procedure: as §4, §5
# [5] = tested on: FGFR3-TACC3_v2 (N-FLAG) fusion polypeptide; test: In vitro kinase activity of FGFR3-TACC3_v2 (N-FLAG) fusion polypeptide (HTRF KinEASE-TK, peptide substrate); assay type: biochemical, human; details: ATP 100 μM
# [6] = tested on: FGFR3-TACC3_v3 expression/NIH3T3 cells; test: Anchorage-independent cell proliferation, spheroid plate, CellTiter-Glo; details: Mus musculus, NIH3T3, 96 h, read-out: growth inhibition rate (%), v3
# Procedure: as §4, §5
# [7] = tested on: FGFR3-TACC3_v2 expression/NIH3T3 cells (tumors); test: Anti-tumorigenic activity in nude mice bearing subcutaneous tumors; assay type: in vivo; details: 30 mg/kg orally once a day for 11 days
# Description: (§1) Cg-Foxn1Nu/Crlcrlj (Nu/Nu) nude mice (Charles River Laboratories, Japan) by means of subcutaneous injection performed in the back of the mice. Three days after the inoculation, AZD4547 and BGJ398 which are FGFR3-TACC3 fusion polypeptide inhibitors were started to be administered. For the test, 4 to 5 mice were assigned to each of the vehicle group and the compound group, AZD4547 and BGJ398 were suspended in a vehicle composed of 0.5% methyl cellulose (Shin-Etsu Chemical Co., Ltd.)/99.5% distilled water, and each of the compounds was orally administered at a dosage of 30 mg/kg. The administration was performed once a day for 11 days, and the body weight of mice and a tumor diameter were measured every 2 or 3 days. A tumor volume was calculated using the following formula. [Tumor volume (mm^3)]=[major axis of tumor (mm)]×[minor axis of tumor (mm)]^2×0.5
# [8] = tested on: FGFR3-TACC3_v3 expression/NIH3T3 cells (tumors); test: as above; assay type: in vivo; details: 30 mg/kg orally once a day for 11 days
# Description: as §1
# [9] = tested on: FGFR3-TACC3_v1 expression/NIH3T3 cells (tumors); test: as above; assay type: in vivo; details: 30 mg/kg orally once a day for 11 days
# Description: as §1
# [10] = biological target: T1, FGFR3-TACC3_v3 (Homo sapiens, UniProt P22607); test: Kinase inhibition in tumor: phosphorylated FGFR3/total FGFR3 by ELISA; assay type: in vivo, nude mice; details: 4 hours after the final administration; dosing as Example 13
# T1 construct: in order to express a full length of ORF of FGFR3-TACC3_v3 as a protein; expressed in transfected cells; host or cells: NIH3T3 cells infected with FGFR3-TACC3_v3/pMXs-puro retrovirus, inoculated into nude mice
# Procedure: (§2) For the test, 5 mice were assigned to each of the vehicle group and the compound group, and 4 hours after the final administration, tumors were extracted by dissection. Thereafter, by using a lysis solution (Cell Lysis Buffer; Cell Signaling Technology, Inc., Phosphatase Inhibitor Cocktail; Thermo Fisher Scientific Inc., Complete; Roche, Ltd.), protein extracts of the tumors were rapidly prepared, and the total FGFR3 level and a phosphorylated FGFR3 level of the tumors were measured using an ELISA kit (R&D Systems). ELISA was performed according to the attached procedure manual, but detection was performed in a different way in which the chemiluminescence detection is conducted using a chemiluminescent reagent (BM chemiluminescence ELISA substrate; Roche, Ltd.) and a luminometer (ARVO; PerkinElmer Inc.).
# (§3) A level obtained by correcting the phosphorylated FGFR3 level by using the total FGFR3 level (phosphorylated FGFR3 level/total FGFR3 level) was taken as a phosphorylation level.
# [11] = biological target: T2, FGFR3-TACC3 fusion polypeptide v1 (Homo sapiens, UniProt P22607); test: as above; assay type: in vivo, nude mice; details: 4 hours after the final administration; dosing as Example 13
# T2 construct: expressed in transfected cells; host or cells: NIH3T3 cells infected with FGFR3-TACC3_v1/pMXs-puro retrovirus, inoculated into nude mice
# Procedure: as §2, §3
# [12] = biological target: T3, FGFR3-TACC3_v2 (Homo sapiens, UniProt P22607, F384L); test: as above; assay type: in vivo, nude mice; details: 4 hours after the final administration; dosing as Example 13
# T3 construct: in order to express a full length of ORF of FGFR3-TACC3_v2 as a protein; expressed in transfected cells; host or cells: NIH3T3 cells infected with FGFR3-TACC3_v2/pMXs-puro retrovirus, inoculated into nude mice
# Procedure: as §2, §3
# [13] = tested on: cells expressing FGFR3-TACC3 fusion gene; details: reported in Science 2012; 337:1231-5; cited from earlier work
# [14] = tested on: RT-112 cells; test: Anchorage-independent proliferation of RT-112 bladder cancer cell line, spheroid plate, CellTiter-Glo; assay type: cell-based; details: Homo sapiens, RT-112, 120 h; final concentration 100 nM; Example 16: 2×10^3 cells per well, 5 days; read-out: growth inhibition rate (%), RT-112
# Procedure: Moreover, as a positive control, a well added only with the medium was prepared. […] As a negative control, DMSO as a vehicle of the compound was added thereto at the same concentration (0.1%) at the time of adding the compound. Thereafter, the cells were cultured for 5 days at 37° C. in the presence of 5% CO2, and a reagent for cell count measurement (CellTiter-Glo™ Luminescent Cell Viability Assay; Promega Corporation) was added thereto. The resultant was stirred for 20 minutes, and the cell count was measured using a luminometer.
# as §5
smiles,measurement,setting,value
CCN1CCN(c2ccc(Nc3cc(N(C)C(=O)Nc4c(Cl)c(OC)cc(OC)c4Cl)ncn3)cc2)CC1 [BGJ398],inhibition at 0.1 µM,[1],92%
same,Inhibition against peptide substrate FGFR3-TACC3 v1,[2]; final concentration 1 nM,26%
same,Inhibition against peptide substrate FGFR3-TACC3 v1,[2]; final concentration 10 nM,47%
same,Inhibition against peptide substrate FGFR3-TACC3 v1,[2]; final concentration 100 nM,58%
same,Inhibition against peptide substrate FGFR3-TACC3 v3,[3]; final concentration 1 nM,13%
same,Inhibition against peptide substrate FGFR3-TACC3 v3,[3]; final concentration 10 nM,38%
same,Inhibition against peptide substrate FGFR3-TACC3 v3,[3]; final concentration 100 nM,75%
same,inhibition at 0.1 µM,[4],90%
same,Inhibition against peptide substrate FGFR3-TACC3 v2,[5]; final concentration 1 nM,8%
same,Inhibition against peptide substrate FGFR3-TACC3 v2,[5]; final concentration 10 nM,44%
same,Inhibition against peptide substrate FGFR3-TACC3 v2,[5]; final concentration 100 nM,79%
same,inhibition at 0.1 µM,[6],87%
same,inhibition of proliferation of tumors (tumor volume),[7],90%
same,inhibition of growth of tumors (tumor volume),[8],88%
same,inhibition of proliferation of tumors (tumor volume),[9],90%
same,reduction of tyrosine auto-phosphorylation in the tumor compared to the vehicle group,[10],85%
same,reduction of tyrosine auto-phosphorylation in the tumor compared to the vehicle group,[11],77%
same,reduction of tyrosine auto-phosphorylation in the tumor compared to the vehicle group,[12],66%
same,proliferation of cells expressing FGFR3-TACC3 fusion gene,[13],inhibited the proliferation
same,inhibition at 0.1 µM,[14],90%
